Laboratory results as given in patent publication US10654814B2, “Bicyclic hydroxamic acids useful as inhibitors of mammalian histone deacetylase activity” (KANCERA AB, priority 2015, dated 2020).
Where two headings read alike, the source gives them in different places.

Assays:
[1] = target: HDAC1 (Homo sapiens (Human), UniProt Q13547); test: HDAC1 in vitro enzymatic assay (fluorescence); format: biochemical; details: Table 4 selectivity profiling
Method: (§1) Biological Tests Method for Measurement of Enzymatic Activity of HDACs Materials & Methods
(§2) All Examples were tested in HDAC1,2,3,6 and 8 in vitro enzymatic assays. The assay principle is well known (Hauser et al. 2009, Bradner et al. 2010) and all necessary reagents like enzymes, substrates, developer and reference compounds are commercially available (see e.g. BPS Biosciences http://www.bpsbioscience.com/). Stock solutions (10 mM in DMSO) of compounds were serially diluted 1:3 in 11 concentrations with a top concentration of 200 μM for HDAC1,2,3 and 2 μM for HDAC6 and HDAC8. The enzymatic reactions were conducted in a mixture containing assay buffer, bovine serum albumin, HDAC substrate, and a test compound. After enzymatic reaction, developer was added and after an additional incubation time, fluorescence intensity was measured at an excitation wavelength of 360 nm and an emission wavelength of 460 nm. All experiments were performed in duplicate.

[2] = target: HDAC2 (Homo sapiens (Human), UniProt Q92769); test: HDAC2 in vitro enzymatic assay (fluorescence); format: biochemical; details: Table 4 selectivity profiling
Method: as §1, §2

[3] = target: HDAC3 (Homo sapiens (Human), UniProt O15379); test: HDAC3 in vitro enzymatic assay (fluorescence); format: biochemical; details: Table 4 selectivity profiling
Method: as §1, §2

[4] = target: HDAC6 (Homo sapiens (Human), UniProt Q9UBN7); test: HDAC6 in vitro enzymatic assay (fluorescence); format: biochemical
Method in brief: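 Fluorogenic HDAC substrate reactions contained assay buffer, BSA and compound, followed by developer. Fluorescence was read at ex 360/em 460 nm. Compounds were tested as 11-point 1:3 dilutions from a top of 200 μM for HDAC1, 2 and 3, and from 2 μM for HDAC6, in duplicate.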

[5] = target: HDAC8 (Homo sapiens (Human), UniProt Q9BY41); test: HDAC8 in vitro enzymatic assay (fluorescence); format: biochemical; details: Table 4 selectivity profiling
Method: as §1, §2

[6] = tested on: U266 (multiple myeloma) cells; test: CellTiter-Blue cell viability assay, U266; format: cell-based; details: Homo sapiens, U-266; 72 hours of treatment
Method: (§3) Method for Measurement of Cell Viability
(§4) The CellTiter-Blue® Cell Viability Assay (Promega) provides a homogeneous, fluorometric method for estimating the number of viable cells present in multi-well plates. The assay uses the indicator dye resazurin to measure the metabolic capacity of cells. Viable cells retain the ability to reduce resazurin into resorufin, which is highly fluorescent.
(§5) Stock solutions (10 mM in DMSO) of compounds were serially diluted 1:2 in 11 concentrations. 50 nL/well (10 mM compound stock in DMSO) was acoustically dispensed in 384-well assay plates with an acoustic dispenser (EDC Biosystems ATS-100AV). Final starting concentration in the assay was 20 μM (0.2% DMSO) for test compounds. The following cell-lines (and origin) have been primarily used: PaCa2 (pancreatic), U266 (multiple myeloma), AMO-1 (plasmacytoma), and MDA-MB-231 (breast adenocarcinoma). PBMCs (peripheral blood mononuclear cells) from healthy donors were used as control cells. Cells were seeded in assay plates (384-well black/clear, Greiner #781091) pre-dispensed with compounds, 25 μL/well, and cultured for 72 hours. After 72 hours, Celltiter Blue reagent (Promega # G8081) was diluted 1:10 with PBS and then added to wells (5 μL/well). The plates were incubated for 2 hours following addition of reagent. The plates were read in an EnVision fluorescence reader (PerkinElmer) with Ex544 nm/Em590 nm. Results were calculated as % cell viability compared to background (cells treated with 0.2% DMSO).

[7] = tested on: AMO-1 (plasmacytoma) cells; test: CellTiter-Blue cell viability assay, AMO-1; format: cell-based; details: Homo sapiens, AMO1; 72 hours of treatment
Method: as §3, §4, §5

[8] = tested on: PaCa2 (pancreatic) cells; test: CellTiter-Blue cell viability assay, PaCa2; format: cell-based; details: PaCa-2; 72 hours of treatment
Method: as §3, §4, §5

[9] = tested on: MDA-MB-231 (breast adenocarcinoma) cells; test: CellTiter-Blue cell viability assay, MDA-MB-231; format: cell-based; details: Homo sapiens, 72 hours of treatment
Method: as §3, §4, §5

[10] = tested on: PBMCs (peripheral blood mononuclear cells) from healthy donors; test: CellTiter-Blue cell viability assay, healthy PBMC; format: cell-based; details: 72 hours of treatment
Method: as §3, §4, §5

[11] = Table 3, read-out: IC50 (nM) for inhibition of HDAC6
[12] = Table 4 selectivity profiling, read-out: IC50 (nM) HDAC6

Sequence of HDAC3 (O15379 whole entry): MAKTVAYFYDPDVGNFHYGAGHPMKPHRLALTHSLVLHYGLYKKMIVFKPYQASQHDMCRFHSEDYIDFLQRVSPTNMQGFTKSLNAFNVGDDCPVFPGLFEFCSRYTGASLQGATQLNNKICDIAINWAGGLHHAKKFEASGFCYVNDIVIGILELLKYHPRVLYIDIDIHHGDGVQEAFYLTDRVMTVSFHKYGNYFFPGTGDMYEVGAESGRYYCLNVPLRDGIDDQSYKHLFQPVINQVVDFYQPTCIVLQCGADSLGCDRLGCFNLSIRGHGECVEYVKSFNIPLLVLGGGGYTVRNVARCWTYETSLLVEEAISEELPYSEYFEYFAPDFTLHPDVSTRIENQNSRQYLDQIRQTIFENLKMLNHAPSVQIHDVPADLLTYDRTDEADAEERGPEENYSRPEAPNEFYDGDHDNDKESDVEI
Sequence of HDAC3 (Q9Y618 395-489 partner): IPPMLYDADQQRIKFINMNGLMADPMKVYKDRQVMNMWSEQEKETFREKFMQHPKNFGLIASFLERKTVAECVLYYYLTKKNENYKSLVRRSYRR
Sequence of HDAC2 (Q92769 whole entry): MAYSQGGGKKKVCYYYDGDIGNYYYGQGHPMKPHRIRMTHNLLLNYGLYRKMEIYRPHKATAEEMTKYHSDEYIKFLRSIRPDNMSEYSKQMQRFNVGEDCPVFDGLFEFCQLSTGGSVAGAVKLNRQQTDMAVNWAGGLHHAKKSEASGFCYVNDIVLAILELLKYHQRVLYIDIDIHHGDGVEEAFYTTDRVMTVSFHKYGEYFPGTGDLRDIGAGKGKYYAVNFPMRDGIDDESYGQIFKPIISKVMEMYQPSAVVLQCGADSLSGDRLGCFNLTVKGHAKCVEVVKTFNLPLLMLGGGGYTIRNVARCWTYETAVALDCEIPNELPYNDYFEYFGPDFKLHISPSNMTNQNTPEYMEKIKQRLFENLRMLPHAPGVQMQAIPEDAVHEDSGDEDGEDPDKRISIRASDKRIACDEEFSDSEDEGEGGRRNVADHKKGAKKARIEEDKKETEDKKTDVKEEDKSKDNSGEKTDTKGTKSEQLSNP
Sequence of HDAC6 (Q9UBN7 whole entry): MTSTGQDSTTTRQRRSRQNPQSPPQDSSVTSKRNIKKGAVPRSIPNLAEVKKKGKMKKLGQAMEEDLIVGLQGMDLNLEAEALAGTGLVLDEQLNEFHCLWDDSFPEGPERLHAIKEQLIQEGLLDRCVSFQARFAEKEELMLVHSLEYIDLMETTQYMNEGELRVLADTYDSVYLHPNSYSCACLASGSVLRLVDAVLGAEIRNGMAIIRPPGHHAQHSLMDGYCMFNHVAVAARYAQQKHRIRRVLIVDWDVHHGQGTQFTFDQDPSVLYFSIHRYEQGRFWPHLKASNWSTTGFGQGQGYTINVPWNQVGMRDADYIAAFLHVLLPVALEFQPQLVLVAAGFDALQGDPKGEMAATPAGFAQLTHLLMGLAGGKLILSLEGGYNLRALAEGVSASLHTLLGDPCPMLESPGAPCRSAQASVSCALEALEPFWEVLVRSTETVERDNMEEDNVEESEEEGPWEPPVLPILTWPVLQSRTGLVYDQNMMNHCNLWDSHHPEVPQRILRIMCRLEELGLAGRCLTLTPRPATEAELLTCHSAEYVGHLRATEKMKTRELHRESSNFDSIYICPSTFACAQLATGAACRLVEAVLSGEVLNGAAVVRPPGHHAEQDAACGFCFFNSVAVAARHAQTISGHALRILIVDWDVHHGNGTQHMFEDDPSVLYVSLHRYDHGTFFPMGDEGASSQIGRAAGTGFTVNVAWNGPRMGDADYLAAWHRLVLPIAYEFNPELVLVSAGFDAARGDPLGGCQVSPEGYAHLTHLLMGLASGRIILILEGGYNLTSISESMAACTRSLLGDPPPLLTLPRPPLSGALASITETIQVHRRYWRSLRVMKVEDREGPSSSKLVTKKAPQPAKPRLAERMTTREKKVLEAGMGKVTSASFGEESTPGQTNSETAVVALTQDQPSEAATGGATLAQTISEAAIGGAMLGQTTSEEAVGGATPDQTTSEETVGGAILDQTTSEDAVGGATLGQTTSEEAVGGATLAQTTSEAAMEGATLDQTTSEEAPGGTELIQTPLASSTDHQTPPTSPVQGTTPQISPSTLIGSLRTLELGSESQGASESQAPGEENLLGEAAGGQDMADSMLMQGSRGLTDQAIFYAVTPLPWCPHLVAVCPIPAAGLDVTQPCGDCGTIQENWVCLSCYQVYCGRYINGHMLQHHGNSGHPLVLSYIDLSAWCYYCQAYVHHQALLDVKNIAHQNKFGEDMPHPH
Sequence of HDAC1 (Q13547 whole entry): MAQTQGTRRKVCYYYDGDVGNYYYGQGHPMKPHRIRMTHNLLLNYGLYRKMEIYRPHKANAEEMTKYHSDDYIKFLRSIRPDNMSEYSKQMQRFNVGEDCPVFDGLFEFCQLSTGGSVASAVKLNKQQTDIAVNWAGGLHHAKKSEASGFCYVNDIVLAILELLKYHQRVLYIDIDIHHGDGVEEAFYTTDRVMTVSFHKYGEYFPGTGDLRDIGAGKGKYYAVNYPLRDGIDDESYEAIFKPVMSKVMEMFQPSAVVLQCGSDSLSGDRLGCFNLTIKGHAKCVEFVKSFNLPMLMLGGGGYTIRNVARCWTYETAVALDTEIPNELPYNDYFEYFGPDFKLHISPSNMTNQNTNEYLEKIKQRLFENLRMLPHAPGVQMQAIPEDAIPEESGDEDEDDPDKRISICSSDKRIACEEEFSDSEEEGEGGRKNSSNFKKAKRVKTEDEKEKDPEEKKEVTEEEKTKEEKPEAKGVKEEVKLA
Sequence of HDAC8 (Q9BY41 whole entry): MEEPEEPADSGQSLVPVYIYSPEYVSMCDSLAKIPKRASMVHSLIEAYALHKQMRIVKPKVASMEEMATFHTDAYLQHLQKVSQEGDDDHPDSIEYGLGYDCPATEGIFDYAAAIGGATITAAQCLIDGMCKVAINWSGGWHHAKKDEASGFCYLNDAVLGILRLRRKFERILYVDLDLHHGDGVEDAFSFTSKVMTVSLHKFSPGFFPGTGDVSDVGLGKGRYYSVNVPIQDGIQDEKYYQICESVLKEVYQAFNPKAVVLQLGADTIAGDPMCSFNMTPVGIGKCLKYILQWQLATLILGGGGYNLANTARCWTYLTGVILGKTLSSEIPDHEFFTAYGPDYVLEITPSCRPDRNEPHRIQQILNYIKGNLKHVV

| Compound | IC50 [1] [nM] | IC50 [2] [nM] | IC50 [3] [nM] | IC50 [4, 11] [nM] | IC50 [4, 12] [nM] | IC50 [5] [nM] | IC50 [6] [µM] | IC50 [7] [µM] | IC50 [8] [µM] | IC50 [9] [µM] | IC50 [10] [µM] |
| --- | --- | --- | --- | --- | --- | --- | --- | --- | --- | --- | --- |
| CC(C)c1ccc(-c2cc3ccc(C(=O)NO)cc3s2)cc1 [Example 88, N-Hydroxy-2-[4-(1-methylethyl)phenyl]-1-benzothiophene-6-carboxamide] | 26000 | 14000 | 10000 | 37 | 14 | 1100 | 0.42 | 0.36 | 0.82 | 1.1 | > 20 |
| COc1ccncc1-c1ccc(-c2nc3cc(C(=O)NO)ccc3o2)cc1 [Example 26, N-hydroxy-2-[4-(4-methoxypyridin-3-yl)phenyl]-1,3-benzoxazole-5-carboxamide] | – | – | – | 5 | – | – | 1.1 | 0.61 | 1.1 | 1.7 | > 20 |
| O=C(NO)c1ccc2oc(-c3ccc(-c4ccccc4F)cc3)nc2c1 [Example 21, 2-(2′-Fluorobiphenyl-4-yl)-N-hydroxy-1,3-benzoxazole-5-carboxamide] | 5600 | > 200000 | 1800 | 28 | 28 | 700 | 0.94 | 0.64 | 1.2 | 1.1 | > 20 |
| CC(C)c1ccc(-c2cc3ccc(C(=O)NO)cc3o2)cc1 [Example 112, N-Hydroxy-2-[4-(1-methylethyl)phenyl]-1-benzofuran-6-carboxamide] | – | – | – | 7 | – | – | 0.58 | 0.46 | 0.89 | 1.2 | > 20 |
| CC(C)(C)c1ccc(-c2nc3cc(C(=O)NO)ccc3s2)cc1 [Example 77, 2-(4-tert-butylphenyl)-N-hydroxy-1,3-benzothiazole-5-carboxamide] | 1800 | 9400 | 930 | – | 22 | 410 | 0.48 | 0.34 | 1.4 | 1.8 | > 20 |
| CC(C)c1ccc(-c2nc3cc(C(=O)NO)ccc3s2)cc1 [Example 75, N-Hydroxy-2-[4-(1-methylethyl)phenyl]-1,3-benzothiazole-5-carboxamide] | 900 | 5500 | 500 | 13 | 3 | 28 | 0.49 | 0.41 | 1.3 | 0.4 | > 20 |
| COc1ncccc1-c1ccc(-c2nc3cc(C(=O)NO)ccc3o2)cc1 [Example 28, N-hydroxy-2-[4-(2-methoxypyridin-3-yl)phenyl]-1,3-benzoxazole-5-carboxamide] | 5600 | 28000 | 1800 | – | 28 | 700 | 0.62 | 0.38 | 1 | 0.75 | > 20 |
| COc1ccc(-c2ccc(-c3nc4cc(C(=O)NO)ccc4o3)cc2)cn1 [Example 27, N-hydroxy-2-[4-(6-methoxypyridin-3-yl)phenyl]-1,3-benzoxazole-5-carboxamide] | > 200000 | > 200000 | 820 | – | 3 | > 2000 | 0.89 | 0.62 | 0.81 | 3.1 | > 20 |
| O=C(NO)c1ccc2sc(-c3cccc(C(F)(F)F)c3)cc2c1 [Example 90, N-hydroxy-2-[3-(trifluoromethyl)phenyl]-1-benzothiophene-5-carboxamide] | – | – | – | 28 | – | – | 0.58 | 0.5 | 0.8 | 0.81 | > 20 |
| CC(C)Oc1ccc(-c2cc3cc(C(=O)NO)ccc3s2)cc1Cl [Example 107, 2-[3-chloro-4-(1-methylethoxy)phenyl]-N-hydroxy-1-benzothiophene-5-carboxamide] | – | – | – | – | – | – | 0.42 | 0.37 | 1.3 | 0.42 | > 20 |
| O=C(NO)c1ccc2sc(-c3ccc(OC(F)(F)F)cc3)cc2c1 [Example 102, N-hydroxy-2-[4-(trifluoromethoxy)phenyl]-1-benzothiophene-5-carboxamide] | – | – | – | 70 | – | – | 0.64 | 0.47 | 2.48 | 0.41 | > 20 |
| O=C(NO)c1ccc2oc(-c3ccc(OC(F)(F)F)cc3)nc2c1 [Example 9, N-hydroxy-2-[4-(trifluoromethoxy)phenyl]-1,3-benzoxazole-5-carboxamide] | 6000 | 76000 | 1700 | – | 38 | 800 | 0.91 | 0.9 | 1.9 | 1.4 | > 20 |
| CC(C)c1ccc(-c2cc3cc(C(=O)NO)ccc3s2)cc1 [Example 89, N-Hydroxy-2-[4-(1-methylethyl)phenyl]-1-benzothiophene-5-carboxamide] | 100000 | 90000 | 90000 | 55 | 26 | > 2000 | 0.43 | 0.44 | 0.68 | 0.81 | > 20 |
| CC(C)c1ccc(Nc2nc3cc(C(=O)NO)ccc3o2)cc1 [Example 43, N-hydroxy-2-{[4-(1-methylethyl)phenyl]amino}-1,3-benzoxazole-5-carboxamide] | 5100 | > 200000 | 3500 | – | 51 | 200 | 1.1 | 0.68 | 1.7 | 0.37 | > 20 |
| CC(C)(C)c1ccc(-c2nc3cc(C(=O)NO)ccc3o2)cc1 [Example 4, 2-(4-tert-butylphenyl)-N-hydroxy-1,3-benzoxazole-5-carboxamide] | 1100 | 19000 | 410 | 5 | 5 | 1000 | 0.49 | 0.38 | 0.75 | 0.81 | > 20 |
| CC(C)c1ccc(-c2nc3ccc(C(=O)NO)cc3s2)cc1 [Example 61] | – | – | – | – | – | – | 1.1 | 0.81 | 0.9 | 1.8 | > 20 |
